This is an account of results in ChEMBL document CHEMBL1133550, “(2,2':6',2"-Terpyridine)platinum(II) complexes are irreversible inhibitors of Trypanosoma cruzi trypanothione reductase but not of human glutathione reductase” (J Med Chem, 2000).

The source made the active and inactive calls. No cut-off for these calls is given here.

Data set [1] is described as follows: Half-life was measured in the presence of NADPH at 20 uM. Type of data set: ADME.
Data set [2] concerns the target Trypanothione reductase (Trypanosoma cruzi) (UniProt P28593). The data set can be described thus: Tested for inhibition of NADPH-reduced trypanothione reductase (TR).
A short description of data set [3]: Half-life was measured in the presence of NADPH at 20 uM; No inhibition. Format: ADME.
Data set [4] addresses Trypanothione reductase (Trypanosoma cruzi) (UniProt P28593). The data set can be described thus: Tested for inhibition of NADPH-reduced trypanothione reductase (TR); No inhibition.

Sequence of UniProt P28593 (P28593 whole entry, looked up): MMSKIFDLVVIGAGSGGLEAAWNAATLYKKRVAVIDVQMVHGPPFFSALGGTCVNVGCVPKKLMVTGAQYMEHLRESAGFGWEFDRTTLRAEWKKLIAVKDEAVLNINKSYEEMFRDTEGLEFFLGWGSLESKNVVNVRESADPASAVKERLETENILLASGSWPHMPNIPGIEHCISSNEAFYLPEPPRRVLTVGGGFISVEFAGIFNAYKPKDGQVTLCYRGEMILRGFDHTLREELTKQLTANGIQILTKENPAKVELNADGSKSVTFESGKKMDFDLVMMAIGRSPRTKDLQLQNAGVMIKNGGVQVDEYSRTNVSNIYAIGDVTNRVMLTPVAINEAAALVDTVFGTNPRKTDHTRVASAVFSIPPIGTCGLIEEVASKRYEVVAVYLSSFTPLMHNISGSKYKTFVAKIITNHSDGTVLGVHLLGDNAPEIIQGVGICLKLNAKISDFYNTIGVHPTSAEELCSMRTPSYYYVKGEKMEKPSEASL

As to “(2-Hydroxyethanethiolato)(2,2':6'2''-terpyridine)platinum (II) Nitrate [listing 1 of 2 here]”, the T1/2 in data set [1] is 35 min.

On to “(2-Hydroxyethanethiolato)(2,2':6'2''-terpyridine)platinum (II) Nitrate [listing 2 of 2 here]”, for which, in data set [2], the K obs is 40 M⁻¹ s⁻¹.

For the substance “(4-Picoline)(2,2':6'2''-terpyridine)platinum (II) Bis (tetrafluoroborate) [listing 1 of 2 here]”, in data set [1], the T1/2 worked out at 11 min.

In the case of “(4-Picoline)(2,2':6'2''-terpyridine)platinum (II) Bis (tetrafluoroborate) [listing 2 of 2 here]”, the K obs in data set [2] stood at 85 M⁻¹ s⁻¹.

On to “(S-Glutathionato)-(4'-Chloro-2,2':6'2''-terpyridine)platinum (II) Nitrate [listing 1 of 2 here]”, for which the NI result in data set [3] was “Not Active”.

Take “(S-Glutathionato)-(4'-Chloro-2,2':6'2''-terpyridine)platinum (II) Nitrate [listing 2 of 2 here]”: in data set [4], the NI result was “inactive”.
